Measurements published in article PMC10946950, “Stretching the Bisalkyne Raman Spectral Palette Reveals a New Electrophilic Covalent Motif” (Chemistry (Weinheim an Der Bergstrasse, Germany), 2023).
Entries after “also recorded” stand apart in the source; their conditions may differ.

How the values were obtained:
[1] = tested on: ES2 cells; test: AlamarBlue cell viability assay; format: cell-based; settings: Homo sapiens, ES-2, incubation 72 h
Procedure: Cell Culture. Human ovarian cancer cell line ES2 was purchased from the American Type Culture Collection, and cells maintained in a humidified incubator at 37°C and 5% CO2 in Dulbecco’s Modified Eagle Medium (DMEM, high glucose, Pyruvate, No Glutamine) (Gibco, cat#21969035), 10% FCS, 1% L-Glutamine (200 mM, ThermoFisher, cat#25-030-081), 1% Pen/Strep (ThermoFisher, cat# […]
AlamarBlue cell viability assay. ES2 cells were plated in sextuplicate wells in a 96-well plate at 3000 cells per well. Compounds were made up as 10 mM stocks in DMSO and added to the cells after 24 h at a range of concentrations (100 µM, 30 µM, 10 µM, 3 µM, 1 µM, 0.3 µM, 0.1 µM, 0.03 µM, 0.01 µM, DMSO only) in 100µl. As a background control 6 wells were plated with media with added DMSO and without cells. After 72 h, 11µl (10%) alamarBlue cell viability reagent (ThermoFisher, cat# DAL1025) was added to each well, including the background control. The plate was incubated at 37°C for 4 h after which the absorbance of the wells was measured with a standard spectrophotometer (Tecan Spark 20M) read at 540nm excitation and 580nm emission wavelength. For each sample the background signal intensity was subtracted from the sample signal intensity and then normalized to the DMSO […]
Subsequent analysis was performed on GraphPad Prism 9 software where the concentrations were converted to a logarithmic scale to which a non -linear regression curve was fitted using the log(inhibitor) vs normalized response with a variable slope model to calculate EC50 values.
Figure S3. EC50 values for compounds 3a – 3n in ES2 cells. Values calculated from 6 technical replicates following incubation for 72 h.
(§1) (1 picture or pasted object on this page, not shown here)

[2] = LC-MS based glutathione (GSH) reactivity assay; format: in vitro ADME; settings: for conversion to GS-adduct over 24 h / extent of conversion to GS-adducts (in words) / conversion to GS-adduct within 5 min: GSH, ACN:PBS buffer (1:1), 37 °C; for conversion to GS-adduct over 24 h / conversion to GS-adduct within 5 min: LC-MS 254 nm; for extent of conversion to GS-adducts (in words): runs at 5 min, 2 h; for conversion to GS-adduct over 24 h / extent of conversion to GS-adducts (in words): 24 h; for GSH reactivity compared with the electronically similar tag: 3b vs 3a, 3f vs BADY, 3g vs 3e, data not shown
Procedure: LC-MS Assay: To 0.5 ml of GSH (50 mmol) in assay buffer (100 mM PBS in H2O) at 37 °C, 0.5 ml of the diyne tag (5 mmol) in CH3CN was added to give a final concentration of 25 mmol and 2.5 mmol of GSH and diyne tags respectively. A magnetic stirbar was added to the assay mixture and stirred at 37 °C. Aliquots from the assay mixture were pipetted out and diluted for LC-MS (ESI+) submissions at 5 min, 2 h and 24 h time points. The chromatogram peaks at 254 nm were extracted to pick the UV-active [M+H]+ values corresponding to the unreacted tags and GS-Tag adducts. Relative intensity (or % conversion) of GS-Tag adduct compared to the unreacted tag for individual LC -MS run was calculated by taking the percentage of mAUGS-Tag divided by mAUGS-Tag + mAUunreacted tag (if A -> B, then % conversion = B/A+B). When [M+H]+ peak of the unreacted tag was below detectable limits, adduct […]
Figure S4. Overlay of the UV-active chromatograms extracted at 254 nm from the LC-MS runs of 3a, 3d, BADY, 3e, 3j and 3k. The chromatograms for each tag at 5 min (black), 2 h (green), 24 h (red) are overlaid. Minimal (3a, BADY), partial (3e) and full (3d, 3j and 3k) conversion were observed which correlated with the ring electronics. […]
are overlaid in a single graph. Conversion is deemed complete when the tag (M) was below detectable limits. * Tags isolated as a mixture of hetero-and homodimers or insoluble in the assay buffer (3i and 3c) were not included in the study. Tags 3b, 3f and 3g have not been shown as their reactivities were similar to the electronicall y similar 3a, BADY and 3e respectively. […]
as §1

[3] = NMR based GSH-reactivity assay; format: in vitro ADME; settings: CD3CN:PBS 1:1, 37 °C
Procedure: NMR Assay: To 0.5 ml of assay buffer (1:1 CD3CN : 100 mM PBS in H2O), the individual diyne tags (10 mmol) were added, transferred to an NMR tube and 1H NMR spectra was acquired. To another 0.5 ml of the assay buffer, GSH (100 mmol) was added, which was then transferred to the NMR tube containing the buffer solution of the tags. The solution was mixed by inverting the tube several times. A final solution of 5 mmol tag and 50 mM GSH was achieved, a magnetic stirbar was added to the tubes and the NMR tubes were left on a stirplate at 37 °C. 1H NMR was recorded at 310 K (37 °C) after ~5 min and 24 h of reaction set up.
as §1

SMILES	EC50 [1] [µM]	conversion to GS-adduct over 24 h [2]	extent of conversion to GS-adducts (in words) [2]	GSH reactivity compared with the electronically similar tag [2]	also measured
COC(=O)c1ccc(C#CC#Cc2cncn2C)n1C [3 a]	≥ 100	1–2%	Minimal	–	change of 1H NMR 24 h post GSH addition [3]: no changes
COC(=O)c1ccc(C#CC#Cc2cncn2C)cc1 [3 b]	≥ 100	–	–	similar	–
COC(=O)c1ccc(C#CC#Cc2nccs2)cc1 [3 d]	–	reacted completely	complete conversion	–	conversion to GS-adduct within 5 min [2]: ~25%; extent of conversion to GS-adducts (in words) ([2]; listed as 3d): full
COC(=O)c1ccc(C#CC#Cc2ccccn2)cc1 [3 e]	17.6	~25%	partial	–	–
COC(=O)c1ccc(C#CC#Cc2cccnc2)cc1 [3 f]	≥ 100	–	–	similar	–
COC(=O)c1ccc(C#CC#Cc2ccncc2)cc1 [3 g]	24.1	–	–	similar	–
COC(=O)c1ccc(C#CC#Cc2ccccn2)nc1 [3 i]	1.63	–	–	–	–
COC(=O)c1ccc(C#CC#Cc2ncccn2)nc1 [3 j]	0.54	–	complete conversion	–	conversion to GS-adduct within 5 min [2]: reacted completely; also recorded: complete conversion; conversion to GS-adduct within 5 min ([2]; listed as 3j): full conversion; extent of conversion to GS-adducts (in words) ([2]; listed as 3j): full
C(C#Cc1ccccc1)#Cc1ccccc1 [BADY, reference compound]	≥ 100	1–2%	Minimal	–	change of 1H NMR 24 h post GSH addition [3]: no changes
